# Laboratory results as given in ChEMBL document CHEMBL2375352, “Spirostanoids with 1,4-dien-3-one or 3β,7α-diol-5,6-ene moieties from Solanum violaceum” (Bioorg Med Chem Lett, 2013).
# What was measured:
# A549 = assay: Cytotoxicity against human A549 cells; format: functional, cell-based
# MDA-MB-231 = assay: Cytotoxicity against human MDA-MB-231 cells; format: functional, cell-based
# MCF7 = assay: Cytotoxicity against human MCF7 cells; format: functional, cell-based
# HepG2 = assay: Cytotoxicity against human HepG2 cells; format: functional, cell-based
# [1] = Cytotoxicity against human Hep3B cells; format: functional, cell-based, Hep 3B2
Structure (SMILES),IC50 (A549) [µg/mL],IC50 (MDA-MB-231) [µg/mL],IC50 (MCF7) [µg/mL],IC50 (HepG2) [µg/mL],IC50 [1] [µg/mL]
CC[C@H](/C=C/[C@@H](C)[C@H]1CC[C@H]2[C@@H]3C(=O)C=C4C[C@@H](O)CC[C@]4(C)[C@H]3CC[C@]12C)C(C)C,> 20,> 20,> 20,> 20,> 20
CC[C@H](CC[C@@H](C)[C@H]1CC[C@H]2[C@@H]3C(=O)C=C4C[C@@H](O)CC[C@]4(C)[C@H]3CC[C@]12C)C(C)C,> 20,> 20,> 20,> 20,> 20
C[C@H]1CC[C@@]2(OC1)O[C@H]1C[C@H]3[C@@H]4CC=C5C[C@@H](O)CC[C@]5(C)[C@H]4CC[C@]3(C)[C@H]1[C@@H]2C,> 20,> 20,> 20,> 20,> 20
CC(C)[C@@H](C)/C=C/[C@@H](C)[C@H]1CC[C@@H]2[C@]1(C)CC=C1[C@]23C=C[C@]2(C[C@@H](O)CC[C@]12C)OO3,10.4,7.32,9.18,7.73,15.5
C[C@@H]1CC[C@@]2(OC1)O[C@H]1C[C@H]3[C@@H]4CCC5=CC(=O)CC[C@]5(C)[C@H]4CC[C@]3(C)[C@H]1[C@@H]2C [DIOSGENONE],> 20,> 20,> 20,13.4,> 20
C[C@@H]1CC[C@@]2(OC1)O[C@H]1C[C@H]3[C@@H]4CC=C5C[C@@H](O)CC[C@]5(C)[C@H]4CC[C@]3(C)[C@H]1[C@@H]2C [DISOGENIN],> 20,> 20,> 20,> 20,> 20
COc1cccc2c1C(=O)c1c(O)c3c(c(O)c1C2=O)C[C@@](O)(C(=O)CO)C[C@@H]3O[C@H]1C[C@H](N)[C@H](O)[C@H](C)O1 [DOXORUBICIN],,0.38,0.29,0.4,0.24
CC(C)[C@@H](C)/C=C/[C@@H](C)[C@H]1CC[C@@H]2[C@]1(C)CC[C@H]1[C@]23C=C[C@]2(C[C@@H](O)CC[C@]12C)OO3 [ERGOSTEROL PEROXIDE],14.3,16.7,13.4,15.3,16.5
COc1cc2ccc(=O)oc2cc1O [SCOPOLETIN],> 20,> 20,17.1,> 20,> 13.2
COc1cc([C@H]2OC[C@H]3[C@@H]2CO[C@@H]3c2cc(OC)c(O)c(OC)c2)cc(OC)c1O [SYRINGARESINOL],> 20,> 20,> 20,> 20,15.7
